# Measured values from patent publication US20250332139A1, “PS[…] AND THEIR USE FOR TREATING […] AND NE[…] DISORDERS” (Transcend Therapeutics, Inc., priority 2021, published 2025).
# What was measured:
# Assay in all cases: β-arrestin GPCR screen (PathHunter/GPCRmax), antagonist mode
# [1] = biological target: 168 GPCRs (Homo sapiens, UniProt Q9UBY5); conditions: EDG7; Antagonist; 1 uM
# [2] = biological target: 168 GPCRs (Homo sapiens, UniProt Q01726); conditions: GPCR MC1R; Antagonist mode; 10 uM
# [3] = biological target: 168 GPCRs (Homo sapiens, UniProt P48039); conditions: GPCR MTNR1A; Antagonist mode; 10 uM
# [4] = biological target: 168 GPCRs (Homo sapiens, UniProt P41586); conditions: ADCYAP1R1; Antagonist; 1 uM
# [5] = biological target: 168 GPCRs (Homo sapiens, UniProt P30988); conditions: CALCR-RAMP3, Antagonist
# [6] = biological target: 168 GPCRs (Homo sapiens, UniProt O95838); conditions: GLP2R; Antagonist; 1 uM
# [7] = biological target: 168 GPCRs (Homo sapiens, UniProt Q99705); conditions: GPCR MCHR1; Antagonist mode; 10 uM
# [8] = biological target: 168 GPCRs (Homo sapiens, UniProt Q15077); conditions: P2RY6; Antagonist; 1 uM
# [9] = biological target: 168 GPCRs (Homo sapiens, UniProt Q8TCW9); conditions: PROKR1; Antagonist; 1 uM
# [10] = biological target: 168 GPCRs (Homo sapiens, UniProt P32249); conditions: GPCR EBI2; Antagonist mode; 10 uM
# [11] = biological target: 168 GPCRs (Homo sapiens, UniProt P21462); conditions: FPR1; Antagonist; 1 uM
# [12] = biological target: 168 GPCRs (Homo sapiens, UniProt Q8TDS5); conditions: GPCR OXER1; Antagonist mode; 10 uM
# [13] = biological target: 168 GPCRs (Homo sapiens, UniProt P35367); conditions: GPCR HRH1; Antagonist mode; 10 uM
# [14] = biological target: 168 GPCRs (Homo sapiens, UniProt Q9HBW0); conditions: EDG4; Antagonist; 1 uM
# [15] = biological target: 168 GPCRs (Homo sapiens, UniProt P47872); conditions: SCTR; Antagonist; 1 uM
# [16] = biological target: 168 GPCRs (Homo sapiens, UniProt P08172); conditions: CHRM2; Antagonist; 1 uM
# [17] = biological target: 168 GPCRs (Homo sapiens, UniProt P43115)
# [18] = biological target: 168 GPCRs (Homo sapiens, UniProt Q8NFJ6); conditions: GPCR PROKR2; Antagonist mode; 10 uM
# [19] = biological target: 168 GPCRs (Homo sapiens, UniProt P41968); conditions: GPCR MC3R; Antagonist mode; 10 uM
# [20] = biological target: 168 GPCRs (Homo sapiens, UniProt Q99500); conditions: GPCR EDG3; Antagonist mode; 10 uM
# [21] = biological target: 168 GPCRs (Homo sapiens, UniProt P41587); conditions: GPCR VIPR2; Antagonist mode; 10 uM
# [22] = biological target: 168 GPCRs (Homo sapiens, UniProt Q969F8); conditions: KISS1R; Antagonist; 1 uM
# [23] = biological target: 168 GPCRs (Homo sapiens, UniProt P25090); conditions: GPCR FPRL1; Antagonist mode; 10 uM
# [24] = biological target: 168 GPCRs (Homo sapiens, UniProt P29371); conditions: GPCR TACR3; Antagonist mode; 10 uM
# [25] = biological target: 168 GPCRs (Homo sapiens, UniProt Q96RI0); conditions: F2RL3; Antagonist; 1 uM
# Chain of 168 GPCRs (Homo sapiens, UniProt P43115) (P43115 whole entry): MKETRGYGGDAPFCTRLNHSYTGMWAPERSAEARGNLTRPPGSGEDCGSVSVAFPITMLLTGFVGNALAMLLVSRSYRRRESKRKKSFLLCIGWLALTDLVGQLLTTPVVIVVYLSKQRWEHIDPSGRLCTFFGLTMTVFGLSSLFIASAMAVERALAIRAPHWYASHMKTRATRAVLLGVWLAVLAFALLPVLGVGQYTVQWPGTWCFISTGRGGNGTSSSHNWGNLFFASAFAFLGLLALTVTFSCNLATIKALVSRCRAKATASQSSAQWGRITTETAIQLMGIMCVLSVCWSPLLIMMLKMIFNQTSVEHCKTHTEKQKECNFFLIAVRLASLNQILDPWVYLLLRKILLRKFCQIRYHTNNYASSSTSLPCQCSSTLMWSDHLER
# Chain of 168 GPCRs (Homo sapiens, UniProt P30988) (P30988 25-474): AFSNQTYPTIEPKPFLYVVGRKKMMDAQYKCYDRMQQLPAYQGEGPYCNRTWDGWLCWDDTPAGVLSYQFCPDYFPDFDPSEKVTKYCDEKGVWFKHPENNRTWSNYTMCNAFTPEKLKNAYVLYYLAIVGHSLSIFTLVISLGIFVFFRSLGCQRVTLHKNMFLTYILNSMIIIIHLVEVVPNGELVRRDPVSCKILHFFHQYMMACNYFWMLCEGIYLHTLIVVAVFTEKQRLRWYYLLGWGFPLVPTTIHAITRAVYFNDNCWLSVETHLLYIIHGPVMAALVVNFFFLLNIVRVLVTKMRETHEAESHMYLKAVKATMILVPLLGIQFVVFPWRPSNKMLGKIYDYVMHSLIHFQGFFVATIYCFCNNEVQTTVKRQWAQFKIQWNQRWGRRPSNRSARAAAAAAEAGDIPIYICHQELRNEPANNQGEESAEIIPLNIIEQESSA
# Chain of 168 GPCRs (Homo sapiens, UniProt P35367) (P35367 whole entry): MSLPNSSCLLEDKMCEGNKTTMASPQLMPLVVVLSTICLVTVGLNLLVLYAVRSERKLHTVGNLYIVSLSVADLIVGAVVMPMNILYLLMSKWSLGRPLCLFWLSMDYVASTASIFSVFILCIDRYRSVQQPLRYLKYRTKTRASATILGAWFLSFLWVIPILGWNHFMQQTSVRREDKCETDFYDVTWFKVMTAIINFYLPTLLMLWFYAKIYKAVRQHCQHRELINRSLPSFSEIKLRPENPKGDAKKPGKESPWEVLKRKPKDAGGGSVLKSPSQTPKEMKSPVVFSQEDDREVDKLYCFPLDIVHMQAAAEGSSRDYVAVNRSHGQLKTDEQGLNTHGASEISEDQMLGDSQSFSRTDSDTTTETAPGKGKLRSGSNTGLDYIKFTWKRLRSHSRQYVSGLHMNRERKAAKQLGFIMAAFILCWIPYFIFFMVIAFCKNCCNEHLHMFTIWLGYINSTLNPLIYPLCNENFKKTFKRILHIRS
# Chain of 168 GPCRs (Homo sapiens, UniProt P21462) (P21462 whole entry): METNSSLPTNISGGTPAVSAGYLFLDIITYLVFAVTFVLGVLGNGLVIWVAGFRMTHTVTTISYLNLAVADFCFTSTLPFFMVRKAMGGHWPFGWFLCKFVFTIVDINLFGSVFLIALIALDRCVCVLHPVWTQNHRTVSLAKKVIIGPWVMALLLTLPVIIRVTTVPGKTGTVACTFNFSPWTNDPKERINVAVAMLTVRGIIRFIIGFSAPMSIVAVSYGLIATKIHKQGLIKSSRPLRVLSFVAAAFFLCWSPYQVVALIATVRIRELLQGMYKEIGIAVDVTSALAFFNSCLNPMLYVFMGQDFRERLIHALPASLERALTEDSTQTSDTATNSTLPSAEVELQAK
# Chain of 168 GPCRs (Homo sapiens, UniProt Q15077) (Q15077 whole entry): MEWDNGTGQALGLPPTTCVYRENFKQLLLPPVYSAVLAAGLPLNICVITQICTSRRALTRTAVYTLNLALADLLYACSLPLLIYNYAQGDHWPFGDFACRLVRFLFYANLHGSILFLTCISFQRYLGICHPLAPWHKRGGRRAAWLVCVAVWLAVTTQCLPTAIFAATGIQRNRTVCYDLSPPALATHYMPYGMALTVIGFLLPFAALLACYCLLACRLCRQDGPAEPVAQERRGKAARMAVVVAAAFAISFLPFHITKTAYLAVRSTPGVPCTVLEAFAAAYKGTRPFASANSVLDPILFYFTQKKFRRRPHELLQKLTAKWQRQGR
# Chain of 168 GPCRs (Homo sapiens, UniProt P25090) (P25090 whole entry): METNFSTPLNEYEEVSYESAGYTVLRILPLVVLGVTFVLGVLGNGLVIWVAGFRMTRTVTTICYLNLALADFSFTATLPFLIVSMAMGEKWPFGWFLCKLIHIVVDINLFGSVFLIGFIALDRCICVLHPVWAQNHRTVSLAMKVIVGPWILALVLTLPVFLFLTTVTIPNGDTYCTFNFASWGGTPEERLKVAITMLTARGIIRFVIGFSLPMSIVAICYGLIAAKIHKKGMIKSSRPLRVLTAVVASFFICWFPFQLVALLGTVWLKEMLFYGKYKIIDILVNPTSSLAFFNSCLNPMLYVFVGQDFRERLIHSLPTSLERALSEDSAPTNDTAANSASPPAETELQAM
# Chain of 168 GPCRs (Homo sapiens, UniProt Q9HBW0) (Q9HBW0 whole entry): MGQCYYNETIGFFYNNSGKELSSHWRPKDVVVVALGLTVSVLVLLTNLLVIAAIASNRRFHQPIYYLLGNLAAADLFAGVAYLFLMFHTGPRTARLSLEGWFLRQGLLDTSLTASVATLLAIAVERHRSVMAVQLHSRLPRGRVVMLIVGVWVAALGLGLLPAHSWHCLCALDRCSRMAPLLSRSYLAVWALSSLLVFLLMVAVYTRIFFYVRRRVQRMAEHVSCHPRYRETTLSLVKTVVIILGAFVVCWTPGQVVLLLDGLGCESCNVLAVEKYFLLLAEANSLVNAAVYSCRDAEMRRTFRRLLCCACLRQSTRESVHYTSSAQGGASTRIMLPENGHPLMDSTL
# Chain of 168 GPCRs (Homo sapiens, UniProt Q969F8) (Q969F8 whole entry): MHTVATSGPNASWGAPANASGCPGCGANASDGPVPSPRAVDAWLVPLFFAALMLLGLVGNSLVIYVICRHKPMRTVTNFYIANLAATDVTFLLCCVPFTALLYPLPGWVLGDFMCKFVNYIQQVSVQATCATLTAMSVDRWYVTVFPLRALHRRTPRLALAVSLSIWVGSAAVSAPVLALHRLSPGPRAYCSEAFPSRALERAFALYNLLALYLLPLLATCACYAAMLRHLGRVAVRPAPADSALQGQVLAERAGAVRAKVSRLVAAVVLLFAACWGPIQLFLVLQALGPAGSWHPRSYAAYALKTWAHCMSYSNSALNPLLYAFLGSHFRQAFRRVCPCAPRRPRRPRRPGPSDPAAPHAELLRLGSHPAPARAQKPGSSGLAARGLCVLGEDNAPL
# Chain of 168 GPCRs (Homo sapiens, UniProt P41968) (P41968 whole entry): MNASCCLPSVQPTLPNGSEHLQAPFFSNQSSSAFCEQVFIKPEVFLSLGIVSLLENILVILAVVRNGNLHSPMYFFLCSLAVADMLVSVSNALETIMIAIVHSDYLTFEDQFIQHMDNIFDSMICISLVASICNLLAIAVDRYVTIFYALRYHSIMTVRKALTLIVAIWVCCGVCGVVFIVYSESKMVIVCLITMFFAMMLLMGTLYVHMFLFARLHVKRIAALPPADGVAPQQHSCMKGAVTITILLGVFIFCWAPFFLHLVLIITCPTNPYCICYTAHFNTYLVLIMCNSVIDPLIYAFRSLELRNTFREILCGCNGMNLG
# Chain of 168 GPCRs (Homo sapiens, UniProt Q99500) (Q99500 whole entry): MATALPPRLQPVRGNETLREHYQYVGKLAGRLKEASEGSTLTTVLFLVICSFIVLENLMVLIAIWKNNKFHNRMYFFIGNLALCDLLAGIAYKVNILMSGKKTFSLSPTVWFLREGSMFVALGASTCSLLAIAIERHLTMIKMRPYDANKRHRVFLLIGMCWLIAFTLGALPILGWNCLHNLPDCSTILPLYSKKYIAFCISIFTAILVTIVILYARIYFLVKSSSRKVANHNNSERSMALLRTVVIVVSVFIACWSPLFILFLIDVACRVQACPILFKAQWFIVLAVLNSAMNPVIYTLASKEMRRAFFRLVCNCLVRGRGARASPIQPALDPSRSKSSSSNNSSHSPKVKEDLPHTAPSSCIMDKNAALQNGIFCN
# Chain of 168 GPCRs (Homo sapiens, UniProt Q8TCW9) (Q8TCW9 whole entry): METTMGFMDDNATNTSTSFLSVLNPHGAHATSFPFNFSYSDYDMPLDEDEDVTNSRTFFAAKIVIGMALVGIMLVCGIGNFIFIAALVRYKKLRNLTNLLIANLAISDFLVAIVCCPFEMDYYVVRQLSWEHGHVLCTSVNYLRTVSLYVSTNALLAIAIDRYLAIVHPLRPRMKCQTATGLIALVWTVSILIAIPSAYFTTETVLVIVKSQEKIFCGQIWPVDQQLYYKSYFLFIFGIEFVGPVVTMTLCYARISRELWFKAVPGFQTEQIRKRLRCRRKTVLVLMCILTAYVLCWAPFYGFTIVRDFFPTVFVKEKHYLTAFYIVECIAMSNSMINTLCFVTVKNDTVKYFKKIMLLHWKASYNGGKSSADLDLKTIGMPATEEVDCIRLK
# Chain of 168 GPCRs (Homo sapiens, UniProt O95838) (O95838 whole entry): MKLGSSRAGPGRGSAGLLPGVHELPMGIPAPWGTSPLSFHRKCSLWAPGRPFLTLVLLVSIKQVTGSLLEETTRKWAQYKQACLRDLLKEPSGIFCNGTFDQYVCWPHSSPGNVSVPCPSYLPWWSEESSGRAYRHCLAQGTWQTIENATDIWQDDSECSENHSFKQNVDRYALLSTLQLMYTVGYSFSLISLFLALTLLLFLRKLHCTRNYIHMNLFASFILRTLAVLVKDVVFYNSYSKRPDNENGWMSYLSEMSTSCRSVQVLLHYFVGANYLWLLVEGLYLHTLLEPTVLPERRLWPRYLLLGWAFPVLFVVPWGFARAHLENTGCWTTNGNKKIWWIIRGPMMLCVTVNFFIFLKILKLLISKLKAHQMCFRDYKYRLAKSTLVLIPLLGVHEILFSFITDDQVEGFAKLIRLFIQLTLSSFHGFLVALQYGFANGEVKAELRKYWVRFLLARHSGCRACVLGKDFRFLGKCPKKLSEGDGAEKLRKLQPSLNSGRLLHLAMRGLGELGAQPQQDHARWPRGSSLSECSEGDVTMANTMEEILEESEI
smiles,measurement,setting,value
"CNC(C)C(=O)c1ccc2c(c1)OCO2 (stereo not drawn) [methylone, 3,4-methylenedioxy-N-methylcathinone]",activity at 1 µM,[1],~19%
same,activity at 10 µM,[2],~15%
same,activity at 10 µM,[3],~7%
same,activity at 1 µM,[4],~13%
same,activity at 1 µM,[5]; 1 uM,~-8%
same,activity at 10 µM,[5]; 10 uM,-3.3%
same,activity at 1 µM,[6],6.4%
same,activity at 10 µM,[7],-38.3%
same,activity at 1 µM,[8],~8%
same,activity at 1 µM,[9],6.7%
same,activity at 10 µM,[10],-2.6%
same,activity at 1 µM,[11],~-4%
same,activity at 10 µM,[12],~7%
same,activity at 10 µM,[13],-2.2%
same,activity at 1 µM,[14],~-10%
same,activity at 1 µM,[15],~6%
same,activity at 1 µM,[16],-18.9%
same,activity at 10 µM,"[17]; GPCR PTGER3, Antagonist mode, 10 uM",-5.7%
same,activity at 1 µM,"[17]; PTGER3, Antagonist, 1 uM",8.2%
same,activity at 10 µM,[18],-6.8%
same,activity at 10 µM,[19],-0.3%
same,activity at 10 µM,[20],-13.6%
same,activity at 10 µM,[21],~-2%
same,activity at 1 µM,[22],25.7%
same,activity at 10 µM,[23],~3%
same,activity at 10 µM,[24],~-14%
same,activity at 1 µM,[25],~-11%
